What was measured:
[1] = Determination of pharmacokinetic parameters after oral gavage of prodrug; assay type: in vivo, dogs; conditions: plasma; prodrug dosed orally by gavage, dose equivalent to 0.127 mmol; hplc
Description: Groups of three dogs were used for each dose level of an experimental compound and one (1) non-cannulated dog was used as a vehicle control. Animals were allowed normal access to chow and water throughout the experiment. The prodrug N-[4-amino-5-(5-iodo-2-isopropyl-4-methoxy-phenoxy)-pyrimidin-2-yl]-2-dipropylamino-acetamide was formulated as an aqueous solution or an aqueous suspension and a dose equivalent to (0.127 mmol) was administered orally by gavage. A blood sample (0.3 mL) was collected from the […] at 0.5, 1, 2, 3, 4, 6 and 8 hours after via the jugular cannula. A sample of at least 0.3 mL of blood was withdrawn from the untreated animals 3 hours after dosing. After 24 hours from dosing, a blood sample was collected from all treated and control animals. Potassium oxalate/NaF was added to the samples which were stored on ice during sampling procedure. The samples were spun in a refrigerated centrifuge at −4° C. as soon as possible and the plasma samples were stored −20° C. immediately after centrifugation and later transferred to a −80° C. freezer until analysis. The concentration of the prodrug N-[4-amino-5-(5-iodo-2-isopropyl-4-methoxy-phenoxy)-pyrimidin-2-yl]-2-dipropylamino-acetamide and the parent compound 5-(5-Iodo-2-isopropyl-4-methoxy-phenoxy)-pyrimidine-2,4-diamine was determined by hplc.

rat P2X3 receptor = target: T1, rat P2X3 receptor (Rattus norvegicus, UniProt P49654); experiment: P2X3 FLIPR (Fluorometric Imaging Plate Reader) assay; assay type: cell-based; conditions: CHO-K1 cells transfected with rat P2X3; agonist α,β-meATP 1 μM; FLIPR calcium fluorescence
T1 construct: expressed in transfected cells; host or cells: CHO-K1
T1 sequence (P49654 1-397): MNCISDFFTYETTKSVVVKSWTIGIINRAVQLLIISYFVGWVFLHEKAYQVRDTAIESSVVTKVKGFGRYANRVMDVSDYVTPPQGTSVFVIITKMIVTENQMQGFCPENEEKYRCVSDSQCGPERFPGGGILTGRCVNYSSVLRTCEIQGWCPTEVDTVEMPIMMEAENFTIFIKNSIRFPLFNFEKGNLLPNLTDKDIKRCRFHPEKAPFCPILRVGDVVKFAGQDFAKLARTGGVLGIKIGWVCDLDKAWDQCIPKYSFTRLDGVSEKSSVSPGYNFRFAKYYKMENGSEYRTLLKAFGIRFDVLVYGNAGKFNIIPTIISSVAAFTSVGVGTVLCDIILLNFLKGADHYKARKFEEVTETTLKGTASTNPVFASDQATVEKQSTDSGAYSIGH
Description: (§1) CHO-K1 cells were transfected with cloned rat P2X3 or human P2X2/3 receptor subunits and passaged in flasks. 18-24 hours before the FLIPR experiment, cells were released from their flasks, centrifuged, and resuspended in nutrient medium at 2.5×10^5 cells/ml. The cells were aliquoted into black-walled 96-well plates at a density of 50,000 cells/well and incubated overnight in 5% CO2 at 37° C. On the day of the experiment, cells were washed in FLIPR buffer (calcium- and magnesium-free Hank's balanced salt solution, 10 mM HEPES, 2 mM CaCl2, 2.5 mM probenecid; FB). Each well received 100 μl FB and 100 μl of the fluorescent dye Fluo-3 AM [2 μM final conc.]. […]
(§2) Test compounds (dissolved in DMSO at 10 mM and serially diluted with FB) or vehicle were added to each well (25 μl of a 4× solution) and allowed to equilibrate for 20 minutes at room temperature. The plates were then placed in the FLIPR and a baseline fluorescence measurement (excitation at 488 nm and emission at 510-570 nm) was obtained for 10 seconds before a 100 μl/well agonist or vehicle addition. […] Fluorescence was measured for an additional 2 minutes at 1 second intervals after agonist addition. A final addition of ionomycin (5 μM, final concentration) was made to each well of the FLIPR test plate to establish cell viability and maximum fluorescence of dye-bound cytosolic calcium. […]

human P2X2/3 receptor = target: T2, human P2X2/3 receptor (Homo sapiens, UniProt P56373+Q9UBL9); experiment: P2X2/3 FLIPR (Fluorometric Imaging Plate Reader) assay; assay type: cell-based; conditions: CHO-K1 cells transfected with human P2X2/3; agonist α,β-meATP 5 μM; FLIPR calcium fluorescence
T2 construct: expressed in transfected cells; host or cells: CHO-K1
T2 sequence (Q9UBL9 1-471): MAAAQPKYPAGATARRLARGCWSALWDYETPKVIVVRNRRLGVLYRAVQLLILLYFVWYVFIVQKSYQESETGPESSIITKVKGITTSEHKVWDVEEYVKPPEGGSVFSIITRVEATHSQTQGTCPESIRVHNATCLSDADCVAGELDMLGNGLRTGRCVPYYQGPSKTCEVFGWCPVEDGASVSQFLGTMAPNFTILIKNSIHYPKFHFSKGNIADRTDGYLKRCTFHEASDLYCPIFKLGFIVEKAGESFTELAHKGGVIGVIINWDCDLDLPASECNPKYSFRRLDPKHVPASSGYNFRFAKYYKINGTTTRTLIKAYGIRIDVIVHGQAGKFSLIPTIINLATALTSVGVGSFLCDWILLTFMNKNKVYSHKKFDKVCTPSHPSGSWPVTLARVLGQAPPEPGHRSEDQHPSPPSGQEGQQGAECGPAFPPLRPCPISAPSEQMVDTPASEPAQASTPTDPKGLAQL
T2 sequence (P56373 1-397): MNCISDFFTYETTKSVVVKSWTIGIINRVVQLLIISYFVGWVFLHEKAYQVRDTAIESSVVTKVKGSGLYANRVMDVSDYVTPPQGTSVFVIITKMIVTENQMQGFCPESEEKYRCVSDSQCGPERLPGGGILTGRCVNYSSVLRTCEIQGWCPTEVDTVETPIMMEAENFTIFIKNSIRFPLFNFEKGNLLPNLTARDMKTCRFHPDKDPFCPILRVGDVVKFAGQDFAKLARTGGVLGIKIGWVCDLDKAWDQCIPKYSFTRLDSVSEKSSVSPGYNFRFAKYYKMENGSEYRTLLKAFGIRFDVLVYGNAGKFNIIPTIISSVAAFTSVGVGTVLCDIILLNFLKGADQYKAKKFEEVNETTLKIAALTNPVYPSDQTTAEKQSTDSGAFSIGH
Description: as §1, §2

AUC of the prodrug [1]	Cmax of the prodrug [1]	melting point	pIC50 for the P2X3 receptor (rat P2X3 receptor)	pIC50 for the P2X2/3 receptor (human P2X2/3 receptor)	SMILES
21.1 ng·h/mL	15.2 ng/mL	129 to 131 °C	–	–	CCCN(CCC)CC(=O)Nc1ncc(Oc2cc(I)c(OC)cc2C(C)C)c(N)n1 [Compound 2, N-[4-Amino-5-(5-iodo-2-isopropyl-4-methoxy-phenoxy)-pyrimidin-2-yl]-2-dipropylamino-acetamide]
–	–	176.5 to 178 °C	–	–	COc1cc(C(C)C)c(Oc2cnc(NC(=O)CNC3CCCC3)nc2N)cc1I [Compound 3, N-[4-Amino-5-(5-iodo-2-isopropyl-4-methoxy-phenoxy)-pyrimidin-2-yl]-2-cyclopentylamino-acetamide]
–	–	–	approximately 7.8	~7.4	COc1cc(C(C)C)c(Oc2cnc(NC(=O)C(C)C)nc2N)cc1I [N-[4-Amino-5-(5-iodo-2-isopropyl-4-methoxy-phenoxy) -pyrimidin-2-yl]-isobutyramide]

Source: patent US7589090B2, “Diaminopyrimidines as P2X3 and P2X2/3 modulators” (Roche Palo Alto LLC, priority 2007, dated 2009)
